Experimental findings from PubChem BioAssay AID330 (DTP/NCI, 2004) are described below.

This assay has as its system P388 leukemia ip, CD2F1 mice, survival T/C. In words: NCI In Vivo Anticancer Drug Screen. Data for tumor model P388 Leukemia (intraperitoneal) in CD2F1 (CDF1) mice. As to conditions: endpoint: median survival time, higher = longer survival. In a few lines: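 Mice carrying the transplanted tumor received test compound or vehicle. Survival was recorded in each group, and the value is the treated-group measurement divided by that of the vehicle-treated control group.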

The mark [1] stands for this setting: dose: 100.0 mg/kg/injection, schedule: Q01DX001 (ip), vehicle: Klucel (hydroxypropylcellulose) (HPC).
Where [2] appears, read: dose: 200.0 mg/kg/injection, schedule: Q01DX001 (ip), vehicle: Klucel (hydroxypropylcellulose) (HPC).
The mark [3] stands for this setting: dose: 400.0 mg/kg/injection, schedule: Q01DX001 (ip), vehicle: Klucel (hydroxypropylcellulose) (HPC).
The mark [4] stands for this setting: dose: 50.0 mg/kg/injection, schedule: Q01DX005 (ip), vehicle: saline with Tween-80.
Where [5] appears, read: dose: 100.0 mg/kg/injection, schedule: Q01DX005 (ip), vehicle: saline with Tween-80.
Where [6] appears, read: dose: 200.0 mg/kg/injection, schedule: Q01DX005 (ip), vehicle: saline with Tween-80.
[7] abbreviates: dose: 50.0 mg/kg/injection, schedule: Q01DX005 (ip), vehicle: Klucel (hydroxypropylcellulose) (HPC).
Where [8] appears, read: dose: 100.0 mg/kg/injection, schedule: Q01DX005 (ip), vehicle: Klucel (hydroxypropylcellulose) (HPC).
[9] abbreviates: dose: 200.0 mg/kg/injection, schedule: Q01DX005 (ip), vehicle: Klucel (hydroxypropylcellulose) (HPC).
[10] abbreviates: dose: 50.0 mg/kg/injection, schedule: Q01DX009 (ip), vehicle: saline with Tween-80.
Setting [11] is: dose: 100.0 mg/kg/injection, schedule: Q01DX009 (ip), vehicle: saline with Tween-80.
[12] abbreviates: dose: 200.0 mg/kg/injection, schedule: Q01DX009 (ip), vehicle: saline with Tween-80.

Each structure is given as a SMILES string. “And” between values parts separate entries of the source, which are not always exact repeats. Equal entries are not always repeated. Toxic doses and inconclusive results are not listed.

For the compound `COc1cc2cc(c1Cl)N(C)C(=O)CC(OC(=O)C(C)C)C1(C)OC1C(C)C1CC(O)(NC(=O)O1)C(OC)/C=C/C=C(C)C2` (centres undefined), the T/C was 114 % of control (dose: 3.1 micrograms/kg/injection, schedule: Q01DX009 (ip), vehicle: saline + alcohol); 119 % of control (dose: 6.2 micrograms/kg/injection, schedule: Q01DX009 (ip), vehicle: saline + alcohol); 115 % of control (dose: 6.25 micrograms/kg/injection, schedule: Q01DX009 (ip), vehicle: saline + alcohol); 106 % of control and 86 % of control (dose: 100.0 micrograms/kg/injection, schedule: Q01DX009 (ip), vehicle: saline + alcohol); 94 % of control (dose: 200.0 micrograms/kg/injection, schedule: Q01DX009 (ip), vehicle: saline + alcohol).
On to `O=C1CSc2c(ccc3c4c([nH]c23)C(=O)CCC4)N1`, for which the T/C is 99 % of control under setting [1], 90 % of control under setting [2] and 97 % of control under setting [3].
For `CN(C)c1ccc(N=Nc2ccccc2)cc1`, the T/C runs as follows: (dose: 31.25 mg/kg/injection, schedule: Q01DX009 (ip), vehicle: saline with Tween-80) 100 % of control; (dose: 62.5 mg/kg/injection, schedule: Q01DX009 (ip), vehicle: saline with Tween-80) 109 % of control.
For the compound `COC(=O)C1C2CC3c4[nH]c5c([N+](=O)[O-])c(OC)ccc5c4CCN3CC2CC(OC(=O)c2cc(OC)c(OC)c(OC)c2)C1OC` (centres undefined), the T/C reads like this: (dose: 9.38 mg/kg/injection, schedule: Q01DX005 (ip), vehicle: Klucel (hydroxypropylcellulose) (HPC)) 98 % of control; (dose: 18.75 mg/kg/injection, schedule: Q01DX005 (ip), vehicle: Klucel (hydroxypropylcellulose) (HPC)) 95 % of control; (dose: 37.5 mg/kg/injection, schedule: Q01DX005 (ip), vehicle: Klucel (hydroxypropylcellulose) (HPC)) 96 % of control; (dose: 75.0 mg/kg/injection, schedule: Q01DX005 (ip), vehicle: Klucel (hydroxypropylcellulose) (HPC)) 86 % of control.
As for `C/C(N=NC(=S)N1CCCCC1)=C1\C=CC=CN1O`, the T/C by setting is: under setting [4], 106 % of control; under setting [5], 98 % of control; under setting [6], 105 % of control.
Regarding `CC(C)COC(=O)N(CCCl)N=O`, the T/C is, setting by setting: (dose: 0.62 mg/kg/injection, schedule: Q01DX009 (ip), vehicle: saline with Tween-80) 100 % of control and 111 % of control; (dose: 1.25 mg/kg/injection, schedule: Q01DX001 (ip), vehicle: saline with Tween-80) 103 % of control; (dose: 1.25 mg/kg/injection, schedule: Q01DX009 (ip), vehicle: saline with Tween-80) 108 % of control and 116 % of control; (dose: 2.5 mg/kg/injection, schedule: Q01DX001 (ip), vehicle: saline with Tween-80) 100 % of control; (dose: 2.5 mg/kg/injection, schedule: Q01DX009 (ip), vehicle: saline with Tween-80) 112 % of control and 115 % of control and 120 % of control; (dose: 5.0 mg/kg/injection, schedule: Q01DX001 (ip), vehicle: saline with Tween-80) 100 % of control and 112 % of control. Besides, the T/C is 100 % of control and 97 % of control (dose: 5.0 mg/kg/injection, schedule: Q01DX009 (ip), vehicle: saline with Tween-80); 90 % of control (dose: 10.0 mg/kg/injection, schedule: Q01DX001 (ip), vehicle: saline with Tween-80).
For the compound `CC12CCC3c4ccc(O)cc4CCC3C1C/C(=C\C(=O)O)C2=O` (centres undefined), the T/C (dose: 3.13 mg/kg/injection, schedule: Q01DX009 (ip), vehicle: Klucel (hydroxypropylcellulose) (HPC)) is 104 % of control; the T/C (dose: 6.25 mg/kg/injection, schedule: Q01DX009 (ip), vehicle: Klucel (hydroxypropylcellulose) (HPC)) is 111 % of control; the T/C (dose: 12.5 mg/kg/injection, schedule: Q01DX009 (ip), vehicle: Klucel (hydroxypropylcellulose) (HPC)) was 108 % of control; the T/C (dose: 25.0 mg/kg/injection, schedule: Q01DX009 (ip), vehicle: Klucel (hydroxypropylcellulose) (HPC)) was 111 % of control.
As to `COc1cc2nc(C)[nH]c(=O)c2cc1OC`, the T/C under setting [7] is 109 % of control, the T/C under setting [8] was 90 % of control and the T/C under setting [9] was 99 % of control.
On the same counts, the results for `CCCCNc1nc(C(F)(F)F)nc2nc[nH]c12` are 103 % of control, 94 % of control and 94 % of control.
As for `CC(C)(C)c1cc(C=O)cc(C(C)(C)C)c1O`, the T/C by setting is: (dose: 25.0 mg/kg/injection, schedule: Q01DX009 (ip), vehicle: saline with Tween-80) 99 % of control; under setting [10], 100 % of control; under setting [11], 96 % of control; under setting [12], 91 % of control.
Take `Cc1cccc(C(=O)N(C)C(c2ccco2)P(=O)(c2ccccc2)c2ccccc2)c1` (centres undefined): the T/C runs as follows: under setting [10], 107 % of control; under setting [11], 101 % of control; under setting [12], 90 % of control; (dose: 400.0 mg/kg/injection, schedule: Q01DX009 (ip), vehicle: saline with Tween-80) 86 % of control.
On to `CSc1nc(SC)c2cnn(COCCO)c2n1`, for which the T/C is, setting by setting: under setting [4], 92 % of control; under setting [5], 92 % of control; under setting [6], 92 % of control.
Consider `C[n+]1cccc(NC(=O)c2ccccc2)c1`, for which the T/C by setting is: (dose: 7.5 mg/kg/injection, schedule: Q01DX005 (ip), vehicle: saline with Tween-80) 102 % of control; (dose: 15.0 mg/kg/injection, schedule: Q01DX005 (ip), vehicle: saline with Tween-80) 99 % of control; (dose: 30.0 mg/kg/injection, schedule: Q01DX005 (ip), vehicle: saline with Tween-80) 113 % of control.
For `CC1COC2(CCC(=CC(=O)O)CC2)O1` (centres undefined), the T/C by setting is: under setting [1], 100 % of control; under setting [2], 102 % of control; under setting [3], 97 % of control.
As for `CCOc1ccc(NS(=O)(=O)c2ccc(N)cc2)cc1CN(CCCl)CCCl`, the T/C (dose: 100.0 mg/kg/injection, schedule: Q01DX001 (ip), vehicle: saline with Tween-80) was 99 % of control; the T/C (dose: 200.0 mg/kg/injection, schedule: Q01DX001 (ip), vehicle: saline with Tween-80) was 99 % of control; the T/C (dose: 400.0 mg/kg/injection, schedule: Q01DX001 (ip), vehicle: saline with Tween-80) was 93 % of control.
For `CC(=O)SC(C(=O)O)C(SC(C)=O)C(=O)O` (centres undefined), the T/C was 106 % of control (dose: 25.0 mg/kg/injection, schedule: Q01DX009 (ip), vehicle: other); 115 % of control (dose: 50.0 mg/kg/injection, schedule: Q01DX009 (ip), vehicle: other); 102 % of control (dose: 100.0 mg/kg/injection, schedule: Q01DX009 (ip), vehicle: other); 89 % of control (dose: 200.0 mg/kg/injection, schedule: Q01DX009 (ip), vehicle: other).
As to `COc1cc2c(c3c1c(=O)c1ccc(F)cc1n3C)C=CC(C)(C)O2`, the T/C by setting is: under setting [7], 98 % of control; under setting [8], 108 % of control; under setting [9], 109 % of control.
On to `CS(=O)(=O)Nc1ccc(Nc2c3ccccc3nc3cc(N)ccc23)cc1`, for which the T/C was 154 % of control (dose: 1.32 mg/kg/injection, schedule: Q04DX003 (ip), vehicle: saline); 167 % of control (dose: 1.78 mg/kg/injection, schedule: Q04DX003 (ip), vehicle: saline); 172 % of control (dose: 2.0 mg/kg/injection, schedule: Q04DX003 (ip), vehicle: saline); 158 % of control (dose: 2.66 mg/kg/injection, schedule: Q04DX003 (ip), vehicle: saline); 187 % of control (dose: 2.9 mg/kg/injection, schedule: Q04DX003 (ip), vehicle: saline); 181 % of control (dose: 3.0 mg/kg/injection, schedule: Q04DX003 (ip), vehicle: saline). For the same compound, the T/C is 155 % of control (dose: 4.0 mg/kg/injection, schedule: Q04DX003 (ip), vehicle: saline); 204 % of control (dose: 4.4 mg/kg/injection, schedule: Q04DX003 (ip), vehicle: saline); 163 % of control (dose: 4.5 mg/kg/injection, schedule: Q04DX003 (ip), vehicle: saline); 192 % of control (dose: 6.0 mg/kg/injection, schedule: Q04DX003 (ip), vehicle: saline); 212 % of control (dose: 6.6 mg/kg/injection, schedule: Q04DX003 (ip), vehicle: saline); 112 % of control (dose: 10.0 mg/kg/injection, schedule: Q04DX003 (ip), vehicle: saline).
